How the values were obtained:
human Apo(a) protein = molecular target: T1, human Apo(a) protein (Homo sapiens, UniProt P08519); experiment: BLI affinity of compounds to Apo(a); format: binding; details: biotinylated apolipoprotein(a) on SA sensor, compound 100 nM
T1 construct: biotin (biotinylated)
Method: • 1. Experimental purpose: The purpose of this test is to test the affinity of the compounds of the present disclosure to Apo(a) • 2. Experimental instruments and reagents: • Molecular interaction analyzer (ForteBio Octet red 96e), • SA sensor (ForteBio), • 96-well plates were purchased from Greine, • 3. Experimental methods:
Prepared two 96-well plates, one as a sample plate and another as a pre-wett plate, curing buffer was added to a 200 μL well of the pre-wet plate, and the SA sensor was pre-wetted for at least ten minutes. All reagents and samples were added to another black sample plate, after the sample addition was completed, the sensor plate and the sample plate were placed into the ForteBio Octet red 96e instrument. The program was set up in sequence for detection. The experimental temperature was set to 30° C. and the acquisition frequency was set at 5.0 Hz. The biosensor was run in 1×PBS, pH7.4, 0.02% Tween-20, 0.1% BSA in the first column for 60 seconds, which was the baseline step. Biotinylated apolipoprotein(a) was diluted to 40 μg/ml with 1×PBS, pH7.4, 0.02% Tween-20, 0.1% BSA, and added to the second column, where it was run for a period of time until the amount of curing on the sensor reaches 2.0 nm. The biosensor was run in 1×PBS, pH7.4, 0.02% Tween-20, 0.1% BSA in the third column for 60 seconds, which was the baseline step. The compound was diluted to 100 nM with 1×PBS, pH7.4, 0.02% Tween-20, 0.1% BSA, and added to the fourth column, where the sensor was run for 60 seconds. The sensor was run in 1×PBS, pH7.4, 0.02% Tween-20, 0.1% BSA in the third column for 120 seconds, during this process, the compound dissociated from the sensor. The affinity constant KD reflects the size of the interaction binding ability. When the concentration of the analyte is at KD, the equilibrium signal Req is half of Rmax.

[1] = system: Salmonella typhimurium TA1535; experiment: Salmonella typhimurium reverse mutation test, TA1535; format: cell-based; design: key: + indicates a positive mutagenic result; − indicates a negative mutagenic result
Method: The revived strains or a single colony from the master plate were inoculated into the broth, and cultured in a thermostat gas bath vibrator at 100 to 120 rpm and 37±1° C. for 10 to 16 hours, marked and stored for later use. The bottom agar medium (containing an appropriate amount of agar, Vogel-Bonner buffer, 20% glucose solution and 20% magnesium sulfate solution) was poured into a six-well plate, approximately […] into each well, and allowed to cool and solidify naturally, marked each well and stored for later use.
Three wells were set up in each group for parallel experiments. The top agar medium was sterilized under high pressure and kept warm at about 65° C. In each test tube, 0.1 mL of negative control (DMSO) or positive control or test sample, 0.1 mL of bacterial solution suspension, 0.5 mL of phosphate buffer (0.2M PBS) (−S9) or 0.5 mL of S9 mixed solution (+S9) and 2.5 mL top culture medium were added, after vortex mixing, and then quickly and evenly spread on the culture dish which was already spreaded with the bottom agar medium. After natural cooling and solidification, the culture dish was inverted and placed in a 37° C. incubator for 48 to 72 hours. After culturing for 48 to 72 hours, the culture dish was taken out, and the number of revertant colonies in each well was counted, the growth background was observed under a microscope to determine whether there was antibacterial or bactericidal activity, and the experimental results were recorded.

hERG potassium channel = molecular target: T2, hERG potassium channel (Homo sapiens, UniProt Q12809); experiment: hERG whole-cell patch clamp experiment; format: cell-based; details: HEK-293 cells that express hERG, HEK-293-hERG cell, read-out: inhibition rate
T2 construct: expressed in transfected cells; host or cells: HEK-293-hERG cells
T2 sequence (Q12809 whole entry): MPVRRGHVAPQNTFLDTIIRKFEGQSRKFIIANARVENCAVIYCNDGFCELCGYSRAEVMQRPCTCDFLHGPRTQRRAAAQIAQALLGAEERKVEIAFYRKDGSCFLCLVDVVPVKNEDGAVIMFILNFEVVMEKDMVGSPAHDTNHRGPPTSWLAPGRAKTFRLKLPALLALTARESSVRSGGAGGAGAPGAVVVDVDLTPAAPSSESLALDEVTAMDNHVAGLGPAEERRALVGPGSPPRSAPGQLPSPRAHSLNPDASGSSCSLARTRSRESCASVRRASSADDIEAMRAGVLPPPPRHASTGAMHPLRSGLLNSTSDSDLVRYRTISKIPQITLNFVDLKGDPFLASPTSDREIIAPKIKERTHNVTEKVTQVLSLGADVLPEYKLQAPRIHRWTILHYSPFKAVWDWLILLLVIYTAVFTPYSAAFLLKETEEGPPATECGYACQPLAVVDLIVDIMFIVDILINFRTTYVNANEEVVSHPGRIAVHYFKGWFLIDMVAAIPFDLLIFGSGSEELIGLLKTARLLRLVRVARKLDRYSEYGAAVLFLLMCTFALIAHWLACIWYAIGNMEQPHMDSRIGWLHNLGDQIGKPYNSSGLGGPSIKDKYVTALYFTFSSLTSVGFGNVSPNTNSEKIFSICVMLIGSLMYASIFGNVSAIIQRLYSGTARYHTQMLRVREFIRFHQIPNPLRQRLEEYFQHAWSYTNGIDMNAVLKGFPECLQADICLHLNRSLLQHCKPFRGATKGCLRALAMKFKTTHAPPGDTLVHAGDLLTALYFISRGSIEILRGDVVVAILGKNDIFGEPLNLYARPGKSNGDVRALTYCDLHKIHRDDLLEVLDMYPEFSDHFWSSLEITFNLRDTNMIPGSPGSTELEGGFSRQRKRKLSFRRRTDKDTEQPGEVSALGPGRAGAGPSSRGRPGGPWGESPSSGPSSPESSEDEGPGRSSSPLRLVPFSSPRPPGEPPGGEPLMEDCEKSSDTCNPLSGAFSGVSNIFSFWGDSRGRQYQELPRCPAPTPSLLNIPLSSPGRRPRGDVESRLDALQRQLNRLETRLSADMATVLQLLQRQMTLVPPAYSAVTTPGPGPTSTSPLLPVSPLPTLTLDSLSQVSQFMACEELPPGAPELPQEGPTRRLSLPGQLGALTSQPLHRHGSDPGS
Method: • 1. Experimental purpose: The purpose of this test is to test the inhibition rate of the compounds on the hERG potassium channel • 2. Experimental methods: The hERG current was recorded using the whole-cell patch clamp technique. A suspension of HEK-293-hERG cell was added to a small culture dish and placed on an inverted microscope stage. After the cells adhered to the dish, extracellular fluid was perfused at a flow rate of 1-2 mL/minute. The glass microelectrode was pulled in two steps by a microelectrode puller, after the electrode was filled with internal fluid, its water resistance was 2-5 MΩ. After establishing the whole-cell recording mode, the holding potential was maintained at −80 mV. A depolarizing voltage to +60 mV was applied for 850 ms, and then followed by repolarization to −50 mV for 1275 ms to elicit the hERG tail current. This set of pulse programs was repeated every 15 seconds throughout the experiment. After the current stabilized, the test compound was administered via continuous extracellular perfusion from low concentration to high concentration. Starting from a low concentration, perfusion was continued until the drug effect was stable, and then the next concentration was perfused.

T1 sequence (P08519 20-2040): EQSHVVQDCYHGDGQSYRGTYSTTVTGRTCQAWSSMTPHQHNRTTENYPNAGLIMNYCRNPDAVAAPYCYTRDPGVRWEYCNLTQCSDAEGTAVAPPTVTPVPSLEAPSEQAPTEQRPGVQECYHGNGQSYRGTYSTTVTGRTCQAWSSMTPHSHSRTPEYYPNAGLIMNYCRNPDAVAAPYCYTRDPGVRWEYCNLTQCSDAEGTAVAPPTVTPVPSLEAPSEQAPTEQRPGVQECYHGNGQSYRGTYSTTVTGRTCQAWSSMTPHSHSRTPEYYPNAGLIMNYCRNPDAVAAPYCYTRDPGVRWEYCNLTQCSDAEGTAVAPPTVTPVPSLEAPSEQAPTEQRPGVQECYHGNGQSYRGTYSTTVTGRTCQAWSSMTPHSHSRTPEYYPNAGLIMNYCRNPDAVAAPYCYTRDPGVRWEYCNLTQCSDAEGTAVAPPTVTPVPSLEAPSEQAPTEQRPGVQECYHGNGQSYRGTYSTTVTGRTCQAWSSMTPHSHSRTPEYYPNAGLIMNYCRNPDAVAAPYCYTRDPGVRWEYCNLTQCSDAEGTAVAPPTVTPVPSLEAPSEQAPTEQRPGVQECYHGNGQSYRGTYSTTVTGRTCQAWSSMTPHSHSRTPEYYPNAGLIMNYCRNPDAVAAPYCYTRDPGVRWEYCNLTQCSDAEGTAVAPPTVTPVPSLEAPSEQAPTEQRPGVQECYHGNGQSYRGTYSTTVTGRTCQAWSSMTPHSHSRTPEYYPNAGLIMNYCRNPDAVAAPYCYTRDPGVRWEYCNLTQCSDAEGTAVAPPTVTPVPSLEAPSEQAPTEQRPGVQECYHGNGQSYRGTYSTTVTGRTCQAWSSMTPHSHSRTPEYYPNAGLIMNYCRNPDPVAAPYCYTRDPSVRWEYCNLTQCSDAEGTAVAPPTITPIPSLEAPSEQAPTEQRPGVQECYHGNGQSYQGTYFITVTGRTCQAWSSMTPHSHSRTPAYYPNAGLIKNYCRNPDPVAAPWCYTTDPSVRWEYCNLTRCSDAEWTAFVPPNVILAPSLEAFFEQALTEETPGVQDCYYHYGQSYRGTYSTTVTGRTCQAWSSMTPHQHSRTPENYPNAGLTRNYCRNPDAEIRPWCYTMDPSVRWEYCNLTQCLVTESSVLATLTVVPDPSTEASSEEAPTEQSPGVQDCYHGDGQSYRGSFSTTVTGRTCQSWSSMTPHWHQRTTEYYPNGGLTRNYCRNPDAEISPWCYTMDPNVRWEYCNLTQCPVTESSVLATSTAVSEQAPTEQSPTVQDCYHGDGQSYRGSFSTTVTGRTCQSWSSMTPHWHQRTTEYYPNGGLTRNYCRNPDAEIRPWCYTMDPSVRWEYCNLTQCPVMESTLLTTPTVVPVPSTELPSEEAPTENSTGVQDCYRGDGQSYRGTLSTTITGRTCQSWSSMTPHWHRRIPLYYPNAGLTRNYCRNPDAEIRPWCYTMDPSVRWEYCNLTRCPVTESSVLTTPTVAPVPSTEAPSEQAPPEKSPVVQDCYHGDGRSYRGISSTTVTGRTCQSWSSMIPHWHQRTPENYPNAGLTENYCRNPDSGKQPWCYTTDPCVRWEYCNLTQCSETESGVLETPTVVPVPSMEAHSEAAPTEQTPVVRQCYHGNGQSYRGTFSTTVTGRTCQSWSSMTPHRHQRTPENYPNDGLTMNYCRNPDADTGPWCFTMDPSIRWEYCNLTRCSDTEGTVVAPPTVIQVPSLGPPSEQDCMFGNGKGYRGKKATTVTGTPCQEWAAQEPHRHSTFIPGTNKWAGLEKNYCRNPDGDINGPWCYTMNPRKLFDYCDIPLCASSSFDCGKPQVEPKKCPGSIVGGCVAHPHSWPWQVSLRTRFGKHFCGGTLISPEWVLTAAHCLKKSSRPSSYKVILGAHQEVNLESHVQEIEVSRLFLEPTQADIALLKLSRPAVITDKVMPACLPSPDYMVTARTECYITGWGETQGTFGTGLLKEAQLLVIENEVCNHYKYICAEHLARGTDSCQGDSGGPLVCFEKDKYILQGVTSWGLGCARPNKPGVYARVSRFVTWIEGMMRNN

| Structure (SMILES) | Kd (human Apo(a) protein) | mutagenicity ([1]; TA1535, +S9, 62 μg/dish) | mutagenicity ([1]; TA1535, +S9, 185 μg/dish) | mutagenicity ([1]; TA1535, +S9, 556 μg/dish) | mutagenicity ([1]; TA1535, +S9, 1667 μg/dish) | mutagenicity ([1]; TA1535, +S9, 5000 μg/dish) | mutagenicity ([1]; TA1535, −S9, 62 μg/dish) | mutagenicity ([1]; TA1535, −S9, 185 μg/dish) | mutagenicity ([1]; TA1535, −S9, 556 μg/dish) | mutagenicity ([1]; TA1535, −S9, 1667 μg/dish) | mutagenicity ([1]; TA1535, −S9, 5000 μg/dish) | inhibition at 0.3 µM (hERG potassium channel) | inhibition at 1 µM (hERG potassium channel) | inhibition at 3 µM (hERG potassium channel) |
| --- | --- | --- | --- | --- | --- | --- | --- | --- | --- | --- | --- | --- | --- | --- |
| O=C(O)[C@@H](Cc1cccc(CN(Cc2cccc(C[C@H](C(=O)O)[C@H]3CCNC3)c2)C(=O)c2cccc(C[C@H](C(=O)O)[C@H]3CCNC3)c2)c1)[C@H]1CCNC1 [Example 5] | 10.9 nM | − | − | − | − | − | − | − | − | − | − | -0.06% | 3.47% | 3.67% |
| O=C(O)[C@@H](Cc1cccc(CN(Cc2cccc(C[C@H](C(=O)O)[C@H]3CCNC3)c2)Cc2cccc(C[C@H](C(=O)O)[C@H]3CCNC3)c2)c1)[C@H]1CCNC1 [Comparative Example 1, reference compound] |  | − | − | − | − | − | − | − | − | − | − | 7.37% | 24.6% | 29.2% |

Reference: patent US20260234125A1, “CYCLIC AMINE DERIVATIVE, AND COMPOSITION AND USE THEREOF” (SHANGHAI JINGXIN BIOMEDICAL CO., LTD., priority 2023, published 2026)
